The values below come from ChEMBL document CHEMBL1268956, “3-Urea-1-(phenylmethyl)-pyridones as novel, potent, and selective EP3 receptor antagonists” (Bioorg Med Chem Lett, 2010).

This assay concerns the target T1, Prostaglandin E2 receptor EP3 subtype (Homo sapiens, UniProt P43115).
T1 sequence (P43115 whole entry): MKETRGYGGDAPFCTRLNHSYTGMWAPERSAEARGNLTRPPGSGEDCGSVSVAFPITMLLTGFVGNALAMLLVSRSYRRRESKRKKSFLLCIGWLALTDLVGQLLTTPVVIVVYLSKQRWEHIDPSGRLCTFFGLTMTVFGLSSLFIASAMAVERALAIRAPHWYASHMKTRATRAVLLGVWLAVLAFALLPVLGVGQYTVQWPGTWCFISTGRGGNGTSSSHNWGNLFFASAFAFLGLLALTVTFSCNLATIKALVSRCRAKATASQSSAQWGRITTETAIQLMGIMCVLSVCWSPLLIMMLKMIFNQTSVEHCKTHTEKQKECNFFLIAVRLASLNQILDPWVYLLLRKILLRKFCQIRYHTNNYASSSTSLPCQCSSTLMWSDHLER
As to the kind of experiment: Antagonist activity at human EP3 receptor expressed in human U2OS cells assessed as inhibition of PGE2-induced intracellular calcium mobilization by FLIPR assay. The assay is classed as functional, cell-based.
Regarding `COc1ccc(NC(=O)Nc2cccn(Cc3ccccc3Cl)c2=O)cc1`, the Ki was over 25.1 µM. For the molecule `Cc1cccc(NC(=O)Nc2cccn(Cc3ccccc3Cl)c2=O)c1`, the Ki was 0.251 µM. To `CC(C)c1cccc(NC(=O)Nc2cccn(Cc3ccccc3Cl)c2=O)c1` belongs 0.0631 µM; to `O=C(Nc1cccc(Cc2ccccc2)c1)Nc1cccn(Cc2ccccc2Cl)c1=O`, over 25.1 µM. With `O=C(O)Cc1cccc(NC(=O)Nc2cccn(Cc3ccccc3Cl)c2=O)c1`, the inhibition constant Ki was over 25.1 µM. To `COC(=O)Cc1cccc(NC(=O)Nc2cccn(Cc3ccccc3Cl)c2=O)c1` belongs over 25.1 µM.

As for `COc1cccc(NC(=O)Nc2cccn(Cc3ccccc3)c2=O)c1`, the Ki was 1 µM. To `CC(=O)c1cccc(NC(=O)Nc2cccn(Cc3ccccc3Cl)c2=O)c1` belongs over 25.1 µM; to `O=C(Nc1ccc(Cl)cc1)Nc1cccn(Cc2ccccc2Cl)c1=O`, over 25.1 µM.

Turning to `COc1cccc(NC(=O)Nc2cccn(Cc3ccccc3F)c2=O)c1`, the Ki was 0.501 µM. For the molecule `COc1cccc(NC(=O)Nc2cccn(Cc3ccccc3Br)c2=O)c1`, the inhibition constant (Ki) is 0.316 µM. In the case of `Cc1ccc(NC(=O)Nc2cccn(Cc3ccccc3Cl)c2=O)cc1`, the Ki was 3.16 µM. To `CCc1ccc(NC(=O)Nc2cccn(Cc3ccccc3Cl)c2=O)cc1` belongs over 25.1 µM. With `COc1cccc(NC(=O)Nc2cccn(Cc3ccccc3C)c2=O)c1`, the Ki was 2.51 µM.

Regarding `COc1cccc(NC(=O)Nc2cccn(Cc3cccc(F)c3)c2=O)c1`, the Ki was 1 µM.

On to `O=C(Nc1ccc(C(F)(F)F)cc1)Nc1cccn(Cc2ccccc2Cl)c1=O`, for which the Ki is over 25.1 µM.

`COc1cccc(NC(=O)Nc2cccn(Cc3cccc(Cl)c3)c2=O)c1`: the inhibition constant (Ki) was 0.398 µM. The result for `COc1cccc(NC(=O)Nc2cccn(Cc3cccc(C)c3)c2=O)c1` reads 1.26 µM; that for `COc1cccc(N(C)C(=O)Nc2cccn(Cc3ccccc3Cl)c2=O)c1`, over 25.1 µM; that for `COc1cccc(C(=O)Nc2cccn(Cc3ccccc3Cl)c2=O)c1`, over 25.1 µM.

For the molecule `COc1cccc(Cn2cccc(NC(=O)Nc3cccc(OC)c3)c2=O)c1`, the Ki was 2 µM. The result for `COc1cccc(NC(=O)Nc2cccn(Cc3ccc(F)cc3)c2=O)c1` reads 1.26 µM; that for `COc1cccc(CC(=O)Nc2cccn(Cc3ccccc3Cl)c2=O)c1`, over 25.1 µM. As to `CCc1cccc(NC(=O)Nc2c(C)ccn(Cc3ccccc3Cl)c2=O)c1`, the Ki is over 25.1 µM. To `COc1cccc(NC(=O)Nc2cccn(Cc3ccc(Cl)cc3)c2=O)c1` belongs 1 µM. The result for `COc1cccc(NC(=O)Nc2cccn(Cc3ccc(C)cc3)c2=O)c1` reads 3.16 µM; that for `COc1ccc(Cn2cccc(NC(=O)Nc3cccc(OC)c3)c2=O)cc1`, 0.794 µM; that for `COc1cccc(NC(=O)Nc2cccn(Cc3ccc(F)cc3Cl)c2=O)c1`, 0.398 µM.

`COc1cccc(NC(=O)Nc2cccn(Cc3cc(F)ccc3Cl)c2=O)c1`: the Ki was 0.794 µM. To `O=C(Nc1ccccc1F)Nc1cccn(Cc2ccccc2Cl)c1=O` belongs 0.158 µM. For `O=C(Nc1ccccc1Cl)Nc1cccn(Cc2ccccc2Cl)c1=O`, the Ki was 0.126 µM. Consider `O=C(Nc1ccccc1I)Nc1cccn(Cc2ccccc2Cl)c1=O`, for which the inhibition constant Ki is 5.01 µM. On to `Cc1ccccc1NC(=O)Nc1cccn(Cc2ccccc2Cl)c1=O`, for which the Ki is 0.794 µM. For the molecule `CCc1ccccc1NC(=O)Nc1cccn(Cc2ccccc2Cl)c1=O`, the Ki is 3.98 µM. For the molecule `COc1ccccc1NC(=O)Nc1cccn(Cc2ccccc2Cl)c1=O`, the Ki was 0.631 µM. For the molecule `O=C(Nc1cccc(F)c1)Nc1cccn(Cc2ccccc2Cl)c1=O`, the Ki was 1.58 µM. Take `O=C(Nc1cccc(Cl)c1)Nc1cccn(Cc2ccccc2Cl)c1=O`: the Ki is 1 µM. Take `O=C(Nc1cccc(Br)c1)Nc1cccn(Cc2ccccc2Cl)c1=O`: the Ki is 1 µM. To `O=C(Nc1cccc(I)c1)Nc1cccn(Cc2ccccc2Cl)c1=O` belongs 0.398 µM.

For `N#Cc1cccc(NC(=O)Nc2cccn(Cc3ccccc3Cl)c2=O)c1`, the Ki is over 25.1 µM.

By Ki is commonly meant a measure of affinity in units of concentration, obtained from inhibition or displacement.
